Test results as given in US20180264001A1 (Teva Pharmaceuticals International GmbH, priority 2015, published 2018).

Details: Canine plasma +1% Tocophersolan, 37° C.
Method: Samples were protected from light under constant agitation using a vortex mixer. The stability of the API under these conditions was assessed at timed intervals (T=0, 2, 4, 21, 24 hours and 2 and 3 days).

Structure (SMILES): Cc1cc2c(s1)Nc1ccccc1N=C2N1CCN(C)CC1.O.O=C(O)c1cc2ccccc2c(Cc2c(O)c(C(=O)O)cc3ccccc23)c1O [olanzapine pamoate monohydrate]
- Concentration (saturated solubility): 817.47 µg/mL
